Data from PMC6523162 (Metabolites, 2019).
Where “and” joins values, the source holds several entries; their conditions need not be identical. Equal entries are not always repeated.

Test system: not listed separately
Assay: PAMPA gut passive permeability
Assay type: in vitro ADME
Conditions: PAMPA gut, pH 5, 50 µM, 4 h
Method: (§1) Parallel Artificial Membrane Permeability Assay was performed to analyze both blood–brain barrier (BBB) and gut passive permeability. All materials for PAMPA were purchased from Pion, Inc (Billerica, MA, USA). Both the gut and BBB assays were performed according to the manufacturer’s instructions. Briefly, test compounds and standards were prepared at 10 mM concentrations in DMSO. For the gut assay, Prisma HT buffer was adjusted to pHs 5, 6.2, and 7.4 by adding 0.5 M NaOH. In the deepwell plate provided by Pion, 1 mL of each pH-adjusted buffer was added to separate wells. For each pH, 5 µL of the sample was added to the 1 mL of buffer then mixed thoroughly with a pipette, diluting the sample to a final concentration of 50 µM. Next, 200 µl of the diluted sample was added to the donor (bottom) plate from the Pion sandwich assay, 5 µL of GIT lipid matrix was added to the membrane on the bottom of the acceptor plate, and 200 µL of acceptor sink buffer was added in each well of the acceptor plate. The sandwich was assembled, and the plate incubated at room temperature for 4 h undisturbed. In BBB assays, compounds (10 mM) were diluted to final concentrations of 50 µM in Prisma HT Buffer (pH = 7.4). The PAMPA sandwich was created with the donor (bottom), BBB artificial membrane, and brain sink buffer as the acceptor (top). The assay was performed for 1 h at room temperature with shaking (60 µm) using the manufacturer-supplied GIT Box. After incubation, the UV profiles of the donor and acceptor plates were read on the SpectraMax plate reader connected to the PAMPA software. PAMPA software calculated the –log Pe values for each compound and standard using the UV profiles of the donor and acceptor plates.

Row | -log Pe | Molecule
1 | 4.27 ± 0.05 | O=C1OC[C@H](Cc2cccc(O)c2)[C@H]1Cc1cccc(O)c1 [EL, enterolactone]
2 | 4.35 ± 0.11 | Oc1ccc([C@H]2COc3cc(O)ccc3C2)cc1 [EQ, equol]

Same assay, conditions: PAMPA gut, pH 6.2, 50 µM, 4 h

Row | -log Pe | Molecule
3 | 4.37 ± 0.02 | O=C1OC[C@H](Cc2cccc(O)c2)[C@H]1Cc1cccc(O)c1 [EL, enterolactone]
4 | 4.20 ± 0.02 | Oc1ccc([C@H]2COc3cc(O)ccc3C2)cc1 [EQ, equol]

Same assay, conditions: pH 5

Row | PAMPA gut permeability (in words) | Molecule
5 | medium | Cc1cc(=O)n(-c2ccccc2)n1C [Antipyrine, reference compound]

Same assay, conditions: pH 5.0, 6.2 and 7.4

Row | Molecule | PAMPA gut permeability (in words)
6 | O=c1c(-c2ccc(O)cc2)coc2cc(O)ccc12 [DAI, daidzein] | most permeable at pHs 5 and 6.2
7 | OC[C@H](Cc1cccc(O)c1)[C@H](CO)Cc1cccc(O)c1 [ED, enterodiol] | lowest permeability of all test compounds
8 | CC(C(=O)O)c1cccc(C(=O)c2ccccc2)c1 (stereo not drawn) [Ketoprofen, ketoprofen, reference compound] | variable permeability with pH change

Other lines, results leading:

Row | PAMPA gut permeability (in words) | Molecule
9 | low | CNC(=C[N+](=O)[O-])NCCSCc1ccc(CN(C)C)o1 [Ranitidine, ranitidine, reference compound]
10 | moderate permeability | COc1cc(C[C@@H](CO)[C@H](CO)Cc2ccc(O)c(OC)c2)ccc1O [SECO, secoisolariciresinol]

Test system: not listed separately
Assay: PAMPA BBB passive permeability
Assay type: in vitro ADME
Conditions: PAMPA BBB, pH 7.4, 50 µM, 1 h
Method: as §1

Row | -log Pe | Molecule
11 | 3.97 ± 0.14 | O=C1OC[C@H](Cc2cccc(O)c2)[C@H]1Cc1cccc(O)c1 [EL, enterolactone]
12 | 3.52 ± 0.20 | Oc1ccc([C@H]2COc3cc(O)ccc3C2)cc1 [EQ, equol]
13 | 4.26 ± 0.16 | O=c1c(-c2ccc(O)cc2)coc2cc(O)cc(O)c12 [GEN, genistein]

Same assay, conditions: pH 7.4

Row | Molecule | PAMPA BBB permeability (in words)
14 | O=C1OC[C@H](Cc2cccc(O)c2)[C@H]1Cc1cccc(O)c1 [EL, enterolactone] | high permeability
15 | OC[C@H](Cc1cccc(O)c1)[C@H](CO)Cc1cccc(O)c1 [ED, enterodiol] | low permeability
16 | O=c1c(-c2ccc(O)cc2)coc2cc(O)cc(O)c12 [GEN, genistein] | Intermediate BBB permeability

Second part, the molecule after the results:

Row | PAMPA BBB permeability (in words) | Molecule
17 | high permeability | Oc1ccc([C@H]2COc3cc(O)ccc3C2)cc1 [EQ, equol]
18 | low permeability | COc1cc(C[C@@H](CO)[C@H](CO)Cc2ccc(O)c(OC)c2)ccc1O [SECO, secoisolariciresinol]

Test system: nitric oxide production in LPS-stimulated BV-2 murine microglia
Assay: Nitric oxide quantification (Griess assay) in LPS-stimulated BV-2
Assay type: cell-based
Conditions: 10 μM compound + LPS 1 μg/mL
Method: (§2) As previously published, BV-2 cells were seeded at a density of 100,000 cells/mL in 24-well plates. […] Media were collected, aliquoted for nitric oxide and cytokine analysis.
Nitric oxide was detected in BV-2 culture media following the stimulation of LPS for 24 h from the previously described experiment by way of the Griess Assay (Promega, Madison WI), according to the manufacturer’s protocol.

Row | Molecule | nitric oxide concentration [µM]
19 | O=C1OC[C@H](Cc2cccc(O)c2)[C@H]1Cc1cccc(O)c1 [EL, enterolactone] | 35.67
20 | COc1cc(C[C@@H](CO)[C@H](CO)Cc2ccc(O)c(OC)c2)ccc1O [SECO, secoisolariciresinol] | 46.35
21 | OC[C@H](Cc1cccc(O)c1)[C@H](CO)Cc1cccc(O)c1 [ED, enterodiol] | 46.65

Same assay, conditions: 10 μM; Tukey's multiple comparisons test

Row | Molecule | Mean Diff., LPS (1 μg/mL) vs. compound, NOS production
22 | O=C1OC[C@H](Cc2cccc(O)c2)[C@H]1Cc1cccc(O)c1 [EL, enterolactone] | 15.34
23 | Oc1ccc([C@H]2COc3cc(O)ccc3C2)cc1 [EQ, equol] | 6.216
24 | O=c1c(-c2ccc(O)cc2)coc2cc(O)ccc12 [DAI, daidzein] | 4.129
25 | COc1cc(C[C@@H](CO)[C@H](CO)Cc2ccc(O)c(OC)c2)ccc1O [SECO, secoisolariciresinol] | 4.653
26 | OC[C@H](Cc1cccc(O)c1)[C@H](CO)Cc1cccc(O)c1 [ED, enterodiol] | 4.354
27 | O=c1c(-c2ccc(O)cc2)coc2cc(O)cc(O)c12 [GEN, genistein] | 14.41

Same assay, conditions: 20 μM; Tukey's multiple comparisons test

Row | Molecule | Mean Diff., LPS (1 μg/mL) vs. compound, NOS production
28 | Oc1ccc([C@H]2COc3cc(O)ccc3C2)cc1 [EQ, equol] | 8.47
29 | O=c1c(-c2ccc(O)cc2)coc2cc(O)ccc12 [DAI, daidzein] | 9.223
30 | O=c1c(-c2ccc(O)cc2)coc2cc(O)cc(O)c12 [GEN, genistein] | 26.17

Same assay, conditions: LPS 1 μg/mL alone

Row | Molecule | nitric oxide species concentration
31 | lipopolysaccharide [LPS, reference compound] | 41.5 ± 5.6 µM and 51.01 µM

Test system: TNF-α release from LPS-stimulated BV-2 murine microglia
Assay: TNF-α ELISA in LPS-stimulated BV-2 media
Assay type: cell-based
Conditions: 10 μM compound + LPS 1 μg/mL
Method: as §2
(§3) IL-6 and TNF-α were measured from BV-2 media using Enzyme Linked Immunosorbent Assay (ELISA) provided by Biolegend (San Diego, CA, USA).

Row | Molecule | TNF-α concentration [pg/mL]
32 | O=C1OC[C@H](Cc2cccc(O)c2)[C@H]1Cc1cccc(O)c1 [EL, enterolactone] | 365.6
33 | COc1cc(C[C@@H](CO)[C@H](CO)Cc2ccc(O)c(OC)c2)ccc1O [SECO, secoisolariciresinol] | 497.8
34 | OC[C@H](Cc1cccc(O)c1)[C@H](CO)Cc1cccc(O)c1 [ED, enterodiol] | 515.8

Same assay, conditions: 10 μM, LPS 1 μg/mL

Row | Molecule | reduction of TNF-α compared to LPS [%]
35 | O=C1OC[C@H](Cc2cccc(O)c2)[C@H]1Cc1cccc(O)c1 [EL, enterolactone] | 29.47
36 | COc1cc(C[C@@H](CO)[C@H](CO)Cc2ccc(O)c(OC)c2)ccc1O [SECO, secoisolariciresinol] | 3.97
37 | OC[C@H](Cc1cccc(O)c1)[C@H](CO)Cc1cccc(O)c1 [ED, enterodiol] | 0.5
38 | O=c1c(-c2ccc(O)cc2)coc2cc(O)cc(O)c12 [GEN, genistein] | 16.6

Same assay, conditions: 10 μM; Tukey's multiple comparisons test

Row | Molecule | Mean Diff., LPS (1 μg/mL) vs. compound, TNF-α
39 | O=C1OC[C@H](Cc2cccc(O)c2)[C@H]1Cc1cccc(O)c1 [EL, enterolactone] | 152.8
40 | Oc1ccc([C@H]2COc3cc(O)ccc3C2)cc1 [EQ, equol] | 57.03
41 | O=c1c(-c2ccc(O)cc2)coc2cc(O)ccc12 [DAI, daidzein] | 57.91
42 | COc1cc(C[C@@H](CO)[C@H](CO)Cc2ccc(O)c(OC)c2)ccc1O [SECO, secoisolariciresinol] | 20.62
43 | OC[C@H](Cc1cccc(O)c1)[C@H](CO)Cc1cccc(O)c1 [ED, enterodiol] | 2.638
44 | O=c1c(-c2ccc(O)cc2)coc2cc(O)cc(O)c12 [GEN, genistein] | 113.8

Same assay, conditions: 20 μM and 10 μM, compared to LPS-induced treatment

Row | Molecule | effect on TNF-α production (in words)
45 | Oc1ccc([C@H]2COc3cc(O)ccc3C2)cc1 [EQ, equol] | similar, albeit less potent, protective abilities
46 | O=c1c(-c2ccc(O)cc2)coc2cc(O)ccc12 [DAI, daidzein] | similar, albeit less potent, protective abilities

Same assay, conditions: 20 μM, LPS 1 μg/mL

Row | Molecule | reduction of TNF-α compared to LPS [%]
47 | O=c1c(-c2ccc(O)cc2)coc2cc(O)cc(O)c12 [GEN, genistein] | 29.1

Same assay, conditions: 20 μM; Tukey's multiple comparisons test

Row | Molecule | Mean Diff., LPS (1 μg/mL) vs. compound, TNF-α
48 | Oc1ccc([C@H]2COc3cc(O)ccc3C2)cc1 [EQ, equol] | 72.78
49 | O=c1c(-c2ccc(O)cc2)coc2cc(O)ccc12 [DAI, daidzein] | 70.55
50 | O=c1c(-c2ccc(O)cc2)coc2cc(O)cc(O)c12 [GEN, genistein] | 199.8

Same assay, conditions: LPS 1 μg/mL alone

Row | Molecule | TNF-α concentration
51 | lipopolysaccharide [LPS, reference compound] | 687.7 ± 8.0 pg/mL and 518.4 pg/mL

Test system: IL-6 release from LPS-stimulated BV-2 murine microglia
Assay: IL-6 ELISA in LPS-stimulated BV-2 media
Assay type: cell-based
Conditions: 10 μM compound + LPS 1 μg/mL
Method: as §2, §3

Row | Molecule | IL-6 concentration [pg/mL]
52 | O=C1OC[C@H](Cc2cccc(O)c2)[C@H]1Cc1cccc(O)c1 [EL, enterolactone] | 489.9
53 | COc1cc(C[C@@H](CO)[C@H](CO)Cc2ccc(O)c(OC)c2)ccc1O [SECO, secoisolariciresinol] | 672.8
54 | OC[C@H](Cc1cccc(O)c1)[C@H](CO)Cc1cccc(O)c1 [ED, enterodiol] | 690.6

Same assay, conditions: 10 μM, LPS 1 μg/mL

Row | Molecule | reduction of IL-6 production compared to LPS
55 | O=C1OC[C@H](Cc2cccc(O)c2)[C@H]1Cc1cccc(O)c1 [EL, enterolactone] | ~26.41%
56 | COc1cc(C[C@@H](CO)[C@H](CO)Cc2ccc(O)c(OC)c2)ccc1O [SECO, secoisolariciresinol] | 1.05%
57 | OC[C@H](Cc1cccc(O)c1)[C@H](CO)Cc1cccc(O)c1 [ED, enterodiol] | approximately 3.74%
58 | O=c1c(-c2ccc(O)cc2)coc2cc(O)cc(O)c12 [GEN, genistein] | 34.0%

Same assay, conditions: 10 μM; Tukey's multiple comparisons test

Row | Molecule | Mean Diff., LPS (1 μg/mL) vs. compound, IL-6
59 | O=C1OC[C@H](Cc2cccc(O)c2)[C@H]1Cc1cccc(O)c1 [EL, enterolactone] | 175.8
60 | Oc1ccc([C@H]2COc3cc(O)ccc3C2)cc1 [EQ, equol] | 10.39
61 | O=c1c(-c2ccc(O)cc2)coc2cc(O)ccc12 [DAI, daidzein] | 17.26
62 | COc1cc(C[C@@H](CO)[C@H](CO)Cc2ccc(O)c(OC)c2)ccc1O [SECO, secoisolariciresinol] | -7.108
63 | OC[C@H](Cc1cccc(O)c1)[C@H](CO)Cc1cccc(O)c1 [ED, enterodiol] | -24.9
64 | O=c1c(-c2ccc(O)cc2)coc2cc(O)cc(O)c12 [GEN, genistein] | 35.15

Same assay, conditions: 20 μM, LPS 1 μg/mL

Row | Molecule | reduction of IL-6 production compared to LPS [%]
65 | O=c1c(-c2ccc(O)cc2)coc2cc(O)cc(O)c12 [GEN, genistein] | 80.4

Same assay, conditions: 20 μM; Tukey's multiple comparisons test

Row | Molecule | Mean Diff., LPS (1 μg/mL) vs. compound, IL-6
66 | Oc1ccc([C@H]2COc3cc(O)ccc3C2)cc1 [EQ, equol] | 19.48
67 | O=c1c(-c2ccc(O)cc2)coc2cc(O)ccc12 [DAI, daidzein] | 20.68
68 | O=c1c(-c2ccc(O)cc2)coc2cc(O)cc(O)c12 [GEN, genistein] | 83.38

Test system: nitric oxide production in LPS-stimulated BV-2 murine microglia
Assay: Nitric oxide quantification (Griess assay) in LPS-stimulated BV-2
Assay type: cell-based
Conditions: 10 μM, 1 h pre-treatment, LPS 1 μg/mL 23 h

Row | Molecule | reduction of nitric oxide compared to LPS alone
69 | O=C1OC[C@H](Cc2cccc(O)c2)[C@H]1Cc1cccc(O)c1 [EL, enterolactone] | ~30.07%
70 | COc1cc(C[C@@H](CO)[C@H](CO)Cc2ccc(O)c(OC)c2)ccc1O [SECO, secoisolariciresinol] | approximately 9.13%
71 | OC[C@H](Cc1cccc(O)c1)[C@H](CO)Cc1cccc(O)c1 [ED, enterodiol] | ~8.54%
72 | O=c1c(-c2ccc(O)cc2)coc2cc(O)cc(O)c12 [GEN, genistein] | 38%

Same assay, conditions: 20 μM, 1 h pre-treatment, LPS 1 μg/mL 23 h

Row | Molecule | reduction of nitric oxide compared to LPS alone [%]
73 | Oc1ccc([C@H]2COc3cc(O)ccc3C2)cc1 [EQ, equol] | 22
74 | O=c1c(-c2ccc(O)cc2)coc2cc(O)ccc12 [DAI, daidzein] | 24
75 | O=c1c(-c2ccc(O)cc2)coc2cc(O)cc(O)c12 [GEN, genistein] | 68
